Like-named read-outs stand apart in the source and are kept apart here. Where only a bound is given, the exact number is not on record here.

The results in this text go back to patent US11530223B2, “Spiro-lactam NMDA receptor modulators and uses thereof” (Aptinyx Inc., priority 2016, dated 2022).

One series has as its target T1, NMDAR2B (Homo sapiens, UniProt Q13224).
T1 construct: expressed in transfected cells; host or cells: HEK cells (membrane extract)
The experiment in a line: [3H]MK-801 binding in NMDAR2B expressing HEK cell membranes. Format: biochemical. Details: key to B: log EC50: 0=−; ≥1×10^−9 M (e.g., −8)=+; <1×10^−9 M (e.g., −10)=++. The settings on record: 50 μM glutamate; for Emax: read-out: A: % maximal [3H]MK-801 binding relative to 1 mM glycine; for EC50: read-out: B: log EC50 (converted). As to the method: (§1) Assays were conducted as described by Moskal et al., “GLYX-13: a monoclonal antibody-derived peptide that acts as an N-methyl-D-aspartate receptor modulator,” Neuropharmacology, 49, 1077-87, 2005. These studies were designed to determine if the test compounds act to facilitate NMDAR activation in NMDAR2A, NMDAR2B, NMDAR2C or NMDAR2D expressing HEK cell membranes as measured by increases in [^3H]MK-801 binding.
(§2) In the assay, 300 μg of NMDAR expressing HEK cell membrane extract protein was preincubated for 15 minutes at 25° C. in the presence of saturating concentrations of glutamate (50 μM) and varying concentrations of test compound (1×10^−15M−1×10^−7M), or 1 mM glycine. Following the addition of 0.3 μCi of [^3H]MK-801 (22.5 Ci/mmol), reactions were again incubated for 15 minutes at 25° C. (nonequilibrium conditions). Bound and free [^3H]MK-801 were separated via rapid filtration using a Brandel apparatus.
(§3) In analyzing the data, the DPM (disintegrations per minute) of [^3H]MK-801 remaining on the filter were measured for each concentration of test compound or for 1 mM glycine. The DPM values for each concentration of a ligand (N=2) were averaged. The baseline value was determined from the best fit curve of the DPM values modeled using the GraphPad program and the log(agonist) vs. response (three parameters) algorithm was then subtracted from all points in the dataset. The % maximal [^3H]MK-801 binding was then calculated relative to that of 1 mM glycine: all baseline subtracted DPM values were divided by the average value for 1 mM glycine. The EC50 and % maximal activity were then obtained from the best fit curve of the % maximal [^3H]MK-801 binding data modelled using the GraphPad program and the log(agonist) vs. response (three parameters) algorithm.
(§4) The tables below summarize the results for the wild type […] NMDAR2A, NMDAR2B, NMDAR2C, and NMDAR2D, and whether the compound is not an agonist (−), is an agonist (+), or is a strong agonist (++), where column A is based on the % maximal [^3H]MK-801 binding relative to 1 mM glycine (−=0; <100%=+; and >100%=++); and column B is based on log EC50 values (0=−; ≥1×10^−9 M (e.g., −8)=+; and <1×10^−9 M (e.g., −10)=++).

Another series concerns the target T2, NMDAR2A (Homo sapiens, UniProt Q12879).
T2 construct: expressed in transfected cells; host or cells: HEK cells (membrane extract)
The series is described as follows: [3H]MK-801 binding in NMDAR2A expressing HEK cell membranes. Type of series: biochemical. Details: key to B: log EC50: 0=−; ≥1×10^−9 M (e.g., −8)=+; <1×10^−9 M (e.g., −10)=++. The settings on record: 50 μM glutamate; for Emax: read-out: A: % maximal [3H]MK-801 binding relative to 1 mM glycine; for EC50: read-out: B: log EC50 (converted). As to the method:
as §1, §2, §3, §4

Another series is described as follows: IV pharmacokinetics. Format: in vivo. The following applies: Sprague Dawley rats; for C0: normal saline (first four compounds: 5% NMP, 5% Solutol HS, 90% normal saline); for Vd: read-out: Vss. As to the method: Sprague Dawley rats were dosed intravenously using a normal saline formulation containing 2 mg/kg of the compounds identified in the below table (except for the first four compounds that were delivered in 5% NMP, 5% Solutol® HS and 90% normal saline formulation). The table below summarizes the results of the IV pharmacokinetics.

Series [1] in a line: oral pharmacokinetics (plasma, brain, CSF). Type of series: in vivo. The following applies: Sprague Dawley rats, per os 10 mg/kg; for Tmax: normal saline (first four compounds: 5% NMP, 5% Solutol HS, 90% normal saline).
Description: Plasma, brain, and CSF samples were analyzed at various time points over a 24 hour period.
The next series has as its target T3, NMDAR2D (Homo sapiens, UniProt O15399).
T3 construct: expressed in transfected cells; host or cells: HEK cells (membrane extract)
The experiment in a line: [3H]MK-801 binding in NMDAR2D expressing HEK cell membranes. Format: biochemical. More on the design: key to B: log EC50: 0=−; ≥1×10^−9 M (e.g., −8)=+; <1×10^−9 M (e.g., −10)=++. As to the method: as §1, §2, §3, §4

A further series relates to Sprague Dawley rats. The series is described as follows: Porsolt forced swim test. Type of series: in vivo. The settings on record: 0.1 mg/kg; for % reduction in float time: relative to vehicle group. As to the method:
A non-clinical in vivo pharmacology study (Porsolt assay) was performed to measure antidepressant-like effects. A negative control (0.5% sodium carboxymethyl cellulose in 0.9% sterile saline vehicle) and a positive control (fluoxetine) are shown for comparison against test compound. The study allowed for the evaluation of the effects of each compound on the Porsolt forced swim test as assessed by the rats' response (reduced floating time) during a 5-minute swimming test.
Male 2-3 month old Sprague Dawley rats were used (Harlan, Indianapolis, Ind.). Rats were housed in Lucite cages with aspen wood chip bedding, maintained on a 12:12 light:dark cycle (lights on at 5 AM), and given ad libitum access to Purina lab chow (USA) and tap water throughout the study.
The Porsolt forced swim test adapted for use in rats was performed as described by Burgdorf et al., (The long-lasting antidepressant effects of rapastinel (GLYX-13) are associated with a metaplasticity process in the medial prefrontal cortex and hippocampus. Neuroscience 308:202-211, 2015). Animals were placed in a 46 cm tall×20 cm in diameter clear glass tube filled to 30 cm with tap water (23±1° C.) for 15 min on the first day (habituation) and 5 min on the subsequent test day. Positive control fluoxetine was dosed 3 times (24 h, 5 h and 1 h) prior to testing. Animals were tested 1 h or 24 h post-dosing with the test compounds or vehicle. Animals received a 15 min habituation session 1 day before the 5 min test. A subset of compounds tested at 1 h post-dosing were retested at 1 wk post-dosing in the same sets of animals. Water was changed after every other animal. Animals were videotaped, and floating time as defined as the minimal amount of effort required to keep the animals head above water was scored offline by a blinded experimenter with high inter-rater reliability (Pearson's r>0.9).
Each compound tested at dose level shown. Significance vs. vehicle group for each experiment is marked. […] A compound marked “No” was not statistically significant from vehicle. Data was averaged for test compound and vehicle groups (N approximately 8 per group) and the percent reduction in floating for group treated with test compound relative to group treated with vehicle is shown.

The mark [2] stands for this setting: Sprague Dawley, rat, in vivo, iv, 2 mg/kg.
Setting [3] is: Sprague Dawley, rat, in vivo, iv, 2 mg/kg, read-out: C0.
Where [4] appears, read: Sprague Dawley, rat, plasma, po, 10 mg/kg.
Setting [5] is: Sprague Dawley, rat, plasma, po, 10 mg/kg, read-out: Tmax.
Setting [6] is: Sprague Dawley, rat, plasma, po, 10 mg/kg, plasma, read-out: Cmax.

T2 sequence (Q12879 23-1464, species assumed, other chains not shown): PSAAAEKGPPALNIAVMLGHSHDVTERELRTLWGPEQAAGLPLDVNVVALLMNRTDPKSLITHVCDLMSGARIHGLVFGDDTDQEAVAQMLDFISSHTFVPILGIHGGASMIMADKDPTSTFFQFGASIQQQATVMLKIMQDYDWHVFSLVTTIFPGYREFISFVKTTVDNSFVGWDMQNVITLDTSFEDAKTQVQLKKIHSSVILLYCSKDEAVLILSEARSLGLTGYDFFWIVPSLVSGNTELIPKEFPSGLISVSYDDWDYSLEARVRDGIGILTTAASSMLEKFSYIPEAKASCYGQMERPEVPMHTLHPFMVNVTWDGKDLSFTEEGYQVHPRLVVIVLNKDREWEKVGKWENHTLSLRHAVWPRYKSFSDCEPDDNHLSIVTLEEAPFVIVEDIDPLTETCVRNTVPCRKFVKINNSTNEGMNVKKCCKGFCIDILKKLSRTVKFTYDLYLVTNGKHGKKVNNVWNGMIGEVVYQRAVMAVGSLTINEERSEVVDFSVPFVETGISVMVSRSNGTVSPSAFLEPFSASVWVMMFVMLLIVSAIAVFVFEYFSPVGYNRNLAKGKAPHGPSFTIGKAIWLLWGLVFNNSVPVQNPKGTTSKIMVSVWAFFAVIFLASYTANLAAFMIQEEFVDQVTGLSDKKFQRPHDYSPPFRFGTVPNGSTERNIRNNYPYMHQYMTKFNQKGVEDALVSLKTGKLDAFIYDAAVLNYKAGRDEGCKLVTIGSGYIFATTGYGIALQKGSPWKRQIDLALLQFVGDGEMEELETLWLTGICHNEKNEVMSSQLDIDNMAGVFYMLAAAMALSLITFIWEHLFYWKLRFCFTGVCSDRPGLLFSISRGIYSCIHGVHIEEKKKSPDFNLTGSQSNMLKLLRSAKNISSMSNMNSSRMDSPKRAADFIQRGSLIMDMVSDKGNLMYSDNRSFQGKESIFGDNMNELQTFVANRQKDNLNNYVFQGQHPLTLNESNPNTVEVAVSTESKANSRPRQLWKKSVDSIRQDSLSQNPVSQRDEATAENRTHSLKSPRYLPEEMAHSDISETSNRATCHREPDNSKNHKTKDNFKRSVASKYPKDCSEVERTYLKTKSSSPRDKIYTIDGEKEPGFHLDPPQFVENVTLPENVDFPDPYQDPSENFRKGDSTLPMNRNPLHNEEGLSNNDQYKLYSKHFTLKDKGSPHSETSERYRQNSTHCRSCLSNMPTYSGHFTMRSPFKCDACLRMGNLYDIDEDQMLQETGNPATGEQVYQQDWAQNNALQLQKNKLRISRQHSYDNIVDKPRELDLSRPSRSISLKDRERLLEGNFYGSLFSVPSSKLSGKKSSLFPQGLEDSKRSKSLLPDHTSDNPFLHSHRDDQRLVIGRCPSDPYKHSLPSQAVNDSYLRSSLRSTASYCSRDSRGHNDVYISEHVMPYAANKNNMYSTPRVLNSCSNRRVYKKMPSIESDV
T1 sequence (Q13224 27-1484, species assumed, other chains not shown): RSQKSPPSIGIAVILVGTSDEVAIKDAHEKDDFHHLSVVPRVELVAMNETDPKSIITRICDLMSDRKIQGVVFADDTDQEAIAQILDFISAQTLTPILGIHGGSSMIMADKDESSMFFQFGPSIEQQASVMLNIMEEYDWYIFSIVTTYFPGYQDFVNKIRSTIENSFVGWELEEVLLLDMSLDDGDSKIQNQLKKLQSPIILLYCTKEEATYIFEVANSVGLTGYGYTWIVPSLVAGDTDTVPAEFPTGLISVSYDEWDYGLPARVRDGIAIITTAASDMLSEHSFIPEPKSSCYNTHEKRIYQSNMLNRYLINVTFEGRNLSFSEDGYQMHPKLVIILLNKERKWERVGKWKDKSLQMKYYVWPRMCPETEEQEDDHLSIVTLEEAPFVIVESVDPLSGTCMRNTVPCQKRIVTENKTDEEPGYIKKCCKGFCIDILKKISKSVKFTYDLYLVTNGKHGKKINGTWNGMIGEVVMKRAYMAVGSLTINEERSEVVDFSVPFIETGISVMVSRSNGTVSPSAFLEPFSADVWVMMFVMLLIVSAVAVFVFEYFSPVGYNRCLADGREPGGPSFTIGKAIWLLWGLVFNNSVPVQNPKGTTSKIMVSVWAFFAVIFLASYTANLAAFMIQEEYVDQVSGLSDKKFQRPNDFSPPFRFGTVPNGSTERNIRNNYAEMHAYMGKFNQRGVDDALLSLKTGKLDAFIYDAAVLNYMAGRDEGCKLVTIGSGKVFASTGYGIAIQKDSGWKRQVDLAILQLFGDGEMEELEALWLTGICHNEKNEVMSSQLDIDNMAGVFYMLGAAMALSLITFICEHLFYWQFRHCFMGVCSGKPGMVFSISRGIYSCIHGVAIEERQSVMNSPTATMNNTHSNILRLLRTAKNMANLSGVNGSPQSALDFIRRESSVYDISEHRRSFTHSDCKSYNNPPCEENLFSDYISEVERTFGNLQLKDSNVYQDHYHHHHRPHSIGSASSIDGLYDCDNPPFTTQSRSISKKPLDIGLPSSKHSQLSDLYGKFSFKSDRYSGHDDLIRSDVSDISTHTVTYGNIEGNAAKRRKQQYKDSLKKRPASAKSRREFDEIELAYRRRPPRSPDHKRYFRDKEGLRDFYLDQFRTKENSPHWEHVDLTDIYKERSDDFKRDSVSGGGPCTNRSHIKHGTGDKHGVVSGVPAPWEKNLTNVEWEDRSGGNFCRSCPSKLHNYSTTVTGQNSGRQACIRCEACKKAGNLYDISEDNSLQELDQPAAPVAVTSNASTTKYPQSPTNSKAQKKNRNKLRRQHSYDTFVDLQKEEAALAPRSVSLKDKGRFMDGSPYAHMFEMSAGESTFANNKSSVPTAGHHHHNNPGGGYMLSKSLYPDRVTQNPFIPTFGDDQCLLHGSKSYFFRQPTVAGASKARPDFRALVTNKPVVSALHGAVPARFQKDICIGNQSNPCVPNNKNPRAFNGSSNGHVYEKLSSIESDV
T3 sequence (O15399 28-1336, species assumed, other chains not shown): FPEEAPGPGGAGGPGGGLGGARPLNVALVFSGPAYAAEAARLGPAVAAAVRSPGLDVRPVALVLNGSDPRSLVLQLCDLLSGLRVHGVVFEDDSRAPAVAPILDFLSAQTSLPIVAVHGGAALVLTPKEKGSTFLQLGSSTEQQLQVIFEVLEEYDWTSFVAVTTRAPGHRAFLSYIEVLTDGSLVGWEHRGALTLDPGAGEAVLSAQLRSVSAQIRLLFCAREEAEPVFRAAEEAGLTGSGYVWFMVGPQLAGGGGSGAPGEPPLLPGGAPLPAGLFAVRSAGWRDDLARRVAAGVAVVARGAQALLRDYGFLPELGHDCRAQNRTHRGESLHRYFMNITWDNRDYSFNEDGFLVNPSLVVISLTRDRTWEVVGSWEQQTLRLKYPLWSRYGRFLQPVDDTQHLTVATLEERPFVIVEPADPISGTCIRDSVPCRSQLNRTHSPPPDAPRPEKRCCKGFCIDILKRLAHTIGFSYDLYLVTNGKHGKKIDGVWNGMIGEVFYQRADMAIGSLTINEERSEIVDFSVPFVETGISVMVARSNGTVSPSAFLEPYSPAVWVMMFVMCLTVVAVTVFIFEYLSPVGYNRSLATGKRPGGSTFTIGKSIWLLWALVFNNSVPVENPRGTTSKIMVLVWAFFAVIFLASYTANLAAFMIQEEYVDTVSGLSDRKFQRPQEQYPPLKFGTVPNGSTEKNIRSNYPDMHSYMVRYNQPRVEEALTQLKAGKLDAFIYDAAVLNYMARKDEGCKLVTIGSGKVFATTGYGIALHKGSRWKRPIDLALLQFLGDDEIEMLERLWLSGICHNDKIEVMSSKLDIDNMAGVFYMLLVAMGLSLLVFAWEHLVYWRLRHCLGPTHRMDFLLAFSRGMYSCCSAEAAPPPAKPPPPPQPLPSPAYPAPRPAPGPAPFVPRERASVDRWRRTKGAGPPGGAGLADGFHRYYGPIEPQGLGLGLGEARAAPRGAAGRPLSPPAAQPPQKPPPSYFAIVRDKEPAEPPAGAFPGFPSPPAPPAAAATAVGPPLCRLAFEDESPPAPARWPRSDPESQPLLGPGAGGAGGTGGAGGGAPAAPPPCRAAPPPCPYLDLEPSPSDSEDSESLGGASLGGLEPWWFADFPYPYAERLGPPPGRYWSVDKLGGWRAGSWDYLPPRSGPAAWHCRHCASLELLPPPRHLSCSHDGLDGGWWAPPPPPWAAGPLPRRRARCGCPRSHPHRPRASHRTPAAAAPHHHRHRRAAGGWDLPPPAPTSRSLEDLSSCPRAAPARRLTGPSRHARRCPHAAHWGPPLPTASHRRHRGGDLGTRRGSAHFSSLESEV

On to `O=C1NCCC12CCNCC2` [RG-603], for which, on NMDAR2B, the Emax is less than 100% and the EC50 was less than 1 nM. Also, at NMDAR2A, the Emax was less than 100% and the EC50 is no less than 1 nM. For the same molecule, in “IV pharmacokinetics” (setting [2]), the AUC(0-t) was 1570 ng·h/mL, the clearance came to 21.1 mL/min/kg, the half-life was 59.4 min and the Vd came out at 0.81 L/kg. Further, in the series “IV pharmacokinetics” (setting [3]), the C0 is 5190 ng/mL. For the same molecule, in series [1] (setting [4]), the AUC(0-t) was 897 ng·h/mL and the bioavailability was 11%. For the same molecule, the Tmax in series [1] (setting [5]) came to 60 min. Besides, in series [1] (setting [6]), the Cmax came out at 311 ng/mL.
As for `CC(C)(C)OC(=O)N1CCCCC12CCNC2=O` (stereo not drawn) [RG-606], on NMDAR2B, the “A: % maximal [3H]MK-801 binding relative to 1 mM glycine” value is on record as “+ (<100%=+)” and the EC50 was less than 1 nM. Besides, on NMDAR2A, the “A: % maximal [3H]MK-801 binding relative to 1 mM glycine” value was “− (−=0)” and the “B: log EC50” value is recorded as “−”. In the series “IV pharmacokinetics” (intravenous 2 mg/kg), this molecule displayed an AUClast of 804 ng·h/mL, a Cl of 41.29 mL/min/kg, a T1/2 of 20.4 min and a Vss of 0.91 L/kg. The molecule also returned a C0 in “IV pharmacokinetics” (intravenous 2 mg/kg) of 2303 ng/mL. In addition, in series [1], the “% F” value came to 48%, the AUClast is 1933 ng·h/mL, the “CSF Cmax” value was found to be 1077 ng/mL and the “Brain Cmax” value came to 612 ng/mL. Besides, in series [1], the Tmax came to 15 min. This molecule displayed a Cmax in series [1] (plasma) of 2812 ng/mL. Besides, on NMDAR2D (second part of table (r25-r35), c3, taken as NMDAR2D), the “A: % maximal [3H]MK-801 binding relative to 1 mM glycine” value was “− (−=0)”. On NMDAR2D (second part of table, c4, taken as NMDAR2D), the “B: log EC50” value was “−”.
Take `CC(C)C(=O)N1CCCCC12CCNC2=O` (stereo not drawn) [RG-609]: at NMDAR2B, the “B: log EC50” value is recorded as “−” and the Emax came to 0%. Moreover, at NMDAR2A, the “B: log EC50” value was “−” and the Emax was 0%.
As for `CC(C)C(=O)N1CCCCC12CCNC2=O` (stereo not drawn) [RG-610], the “B: log EC50” value on NMDAR2B and at NMDAR2A was “−” each time.
Turning to `CC(C)(C)OC(=O)N1CCC2(CCNC2=O)CC1` [RG-619], the “B: log EC50” value at NMDAR2B and on NMDAR2A was “−” in each case. Also, the Emax on NMDAR2B and on NMDAR2A was 0% each time.
As to `CC(=O)N1CCC2(CCNC2=O)CC1` [RG-621], at NMDAR2B, the Emax was greater than 100% and the EC50 is less than 1 nM. At NMDAR2A, the Emax is less than 100% and the EC50 is less than 1 nM. In “IV pharmacokinetics” (setting [2]), the AUC(0-t) was 6230 ng·h/mL, the clearance amounted to 5.33 mL/min/kg, the half-life was 103 min and the Vd was 0.52 L/kg. Besides, the C0 in the series “IV pharmacokinetics” (setting [3]) was determined as 4760 ng/mL. In series [1], the “CSF Cmax” value is 3654.37 ng/mL and the “Brain Cmax” value worked out at 1977.29 ng/mL. In series [1] (setting [4]), the AUC(0-t) is 29100 ng·h/mL and the bioavailability stood at 93%. For the same molecule, in series [1] (setting [5]), the Tmax came out at 34.8 min. In series [1] (setting [6]), the Cmax amounted to 12000 ng/mL.
For `CC(C)C(=O)N1CCC2(CCNC2=O)CC1` [RG-623], on NMDAR2B, the Emax is less than 100% and the EC50 is less than 1 nM. In addition, at NMDAR2A, the “B: log EC50” value is “−” and the Emax turned out to be 0%. Also, in the series “IV pharmacokinetics” (setting [2]), the AUC(0-t) stood at 10500 ng·h/mL, the clearance is 3.18 mL/min/kg, the half-life was 239 min and the Vd was 0.56 L/kg. Further, the C0 in the series “IV pharmacokinetics” (setting [3]) amounted to 4130 ng/mL. Further, in series [1], the “CSF Cmax” value was 4727 ng/mL and the “Brain Cmax” value was determined as 4317 ng/mL. In addition, in series [1] (setting [4]), the AUC(0-t) was 42600 ng·h/mL and the bioavailability is 81%. Further, the Cmax in series [1] (setting [6]) is 10900 ng/mL. The Tmax in series [1] (rat, plasma, po, read-out: Tmax) amounted to 25.2 min. Moreover, the Significance vs. vehicle entry in the series with Sprague Dawley rats (1 h post-dose, floating time in 5 min test) is listed as “Yes (statistically significant (p<=0.05) from vehicle at dose level shown)”. For the same molecule, in the series on Sprague Dawley rats (1 h post-dose), the “% reduction in float time” value turned out to be 60.0%. Moreover, in the series on Sprague Dawley rats (24 h post-dose), the Significance vs. vehicle result is listed as “Yes (statistically significant (p<=0.05) from vehicle at dose level shown)” and the “% reduction in float time” value turned out to be 52.9%.
For the molecule `O=C1NCCC12CCCN2` (stereo not drawn) [RX-1, 1,7-diazaspiro[4.4]nonan-6-one], at NMDAR2B, the “B: log EC50” value is given as “−” and the Emax stood at 0%. At NMDAR2A, the “B: log EC50” value is reported as “−” and the Emax stood at 0%.
As for `CC(=O)N1CCCC12CCNC2=O` (stereo not drawn) [RZ-403], at NMDAR2B, the “A: % maximal [3H]MK-801 binding relative to 1 mM glycine” value is reported as “++ (>100%=++)” and the concentration for a half-maximal effect (EC50) is less than 1 nM. In addition, on NMDAR2A, the “A: % maximal [3H]MK-801 binding relative to 1 mM glycine” value is on record as “− (−=0)” and the “B: log EC50” value was “−”.
As for `CC(=O)N1CCCC12CCNC2=O` (stereo not drawn) [RZ-404], at NMDAR2B, the “A: % maximal [3H]MK-801 binding relative to 1 mM glycine” value was “− (−=0)” and the “B: log EC50” value is on record as “−”. At NMDAR2A, the “A: % maximal [3H]MK-801 binding relative to 1 mM glycine” value is reported as “+ (<100%=+)” and the half-maximal effective concentration (EC50) is less than 1 nM.
As for `CC(C)C(=O)N1CCCC12CCNC2=O` (stereo not drawn) [RZ-406], at NMDAR2B, the “A: % maximal [3H]MK-801 binding relative to 1 mM glycine” value is listed as “+ (<100%=+)” and the EC50 was less than 1 nM. For the same molecule, at NMDAR2A, the “A: % maximal [3H]MK-801 binding relative to 1 mM glycine” value is given as “− (−=0)” and the “B: log EC50” value is given as “−”.
